Measured values: publication PMC9599351 (2022)

test system: RIV aptamer (DNA, aptamer) TAGGGAAGAGAAGGACATATGATGACTCACAACTGGACGAACGTACTTATCCCCCCCAATCACTAGTGAATT; assay: square-wave voltammetry aptasensor; conditions: K+ 0.01 M (KCl); [Fe(CN)6]3−/4−; concentration tested not stated

Q: N=C(N)NCCC[C@H](N)C(=O)O was tested. Which binding did it give?
A: Its binding is “weak”.

Q: Which binding does the source give for NCC(=O)O here?
A: Its binding is “no”.

Q: With O=C(O)[C@@H]1CCCN1 as the molecule, how does the binding read?
A: The binding was “weak”.

Q: N[C@@H](CS)C(=O)O was tested. Which binding did it give?
A: The binding was “weak”.

Q: With OC[C@H]1OC(O)[C@H](O)[C@@H](O)[C@@H]1O (some centres unmarked) as the molecule, how does the binding read?
A: Its binding is “no”.
